The values that follow come from patent publication US7795226B2, “Control of radiation injury” (Biotempt B.V., priority 2006, dated 2010).

Values joined by “and” are separate entries in the source; they are usually repeats but may differ in a detail not shown here. Identical values can stand only once.

Holding throughout (format): in vivo
In experiment [1] the test system is LPS-induced septic shock in mice. As to the kind of experiment: comparative trial MTR and AQGV from two sources, LPS sickness scores. More on the design: key to Sickness Score, individual mouse: 0: No abnormalities.; 1: Percolated fur, but no detectable behavior differences compared to normal mice.; 2: Percolated fur, huddle reflex, responds to stimuli (such as tap on cage), just as active during handling as healthy mouse.; 3: Slower response to tap on cage, passive or docile when handled, but still curious when alone in a new setting.; 4: Lack of curiosity, little or no response to stimuli, quite immobile.; 5: Labored breathing, inability or slow to self-right after being rolled onto back (moribund, sacrificed).; Dead. The settings on record: LPS 10-11 mg/kg; for Survival %: group of six. An excerpt:
Mice were scored for sickness severity using the following measurement scheme: • 0 No abnormalities. • 1 Percolated fur, but no detectable behavior differences compared to normal mice. • 2 Percolated fur, huddle reflex, responds to stimuli (such as tap on cage), just as active during handling as healthy mouse. • 3 Slower response to tap on cage, passive or docile when handled, but still curious when alone in a new setting. • 4 Lack of curiosity, little or no response to stimuli, quite immobile. • 5 Labored breathing, inability or slow to self-right after being rolled onto back (moribund, sacrificed). • D Dead.
A comparative trial was set up to compare peptide MTR and AQGV (SEQ ID NO:120), each obtained from two commercial sources. The comparative trial comprised six groups of six animals; two groups (1A and 1B) receiving placebo (PBS), one group ([…]), one group (3) receiving peptide MTR (source Ansynth), one group (4) receiving peptide AQGV (SEQ ID NO:120) (source Pepscan) and one group (5) receiving peptide AQGV (SEQ ID NO:120) (source Ansynth). Peptide/placebo in these groups was administered two hours after LPS. LPS (source) was used at 10 to 11 mg/kg. Sickness scores were done at 0, 2, 22, 26, 42, and 48 hours after LPS injection.
Comparative trial MTR and AQGV (SEO ID NO:120), each derived from two sources, all at 5 mg/kg.

The test system of experiment [2] is BALB/c mice exposed whole body to 10 Gy 137Cs-γ-irradiation. Put plainly: Whole body γ-irradiation (10 Gy), peptide 1.5 hours before irradiation. The conditions noted are these: 10 mg/kg i.p. 1.5 hours before 10 Gy; for Watery eyes / Weight loss: affected/total; for Mortality: dead/total. The method, then: (§1) In the first experiment, 12-week-old female BALB/c mice were treated intraperitoneally with a single injection of either PBS (n=9) or with a peptide (LQGV (SEQ ID NO:117), VLPALP (SEQ ID NO:140), LPGCPRGVNPVVS (SEQ ID NO:114), MTRVLQGVLPALPQVVC (SEQ ID NO:113); n=8, 10 mg/kg). One and a half hours after the treatment, mice were exposed whole body to a single dose of 10 Gy ^137Cs-γ-irradiation. In the second experiment, 12-week-old female BALB/c mice were first exposed whole body to a single dose of 10 Gy ^137Cs-γ-irradiation and then 1.5 hours after the irradiation treated intraperitoneally with a single injection of either PBS (n=9) or with a peptide (n=8 or 9, 10 mg/kg).

Experiment [3] has the same test system. As to the kind of experiment: Whole body γ-irradiation (10 Gy), peptide 1.5 hours after irradiation. The settings on record: 10 mg/kg i.p. 1.5 hours after 10 Gy; for Watery eyes / Weight loss: affected/total; for Mortality: dead/total. As to the method: as §1
Experiment [4] has as its system mice after Whole Body Irradiation. As to the kind of experiment: Dose Reduction Factor (DRF) test, escalating WBI doses. The settings on record: for Percent alive at day 30 / Percent dead at day 30 / The absolute number of animals alive at 30 days post WBI: 10 mg/kg s.c. single dose at day 3. As to the method:
Escalating doses of Whole Body Irradiation (WBI), with one single exposure given to any particular cohort, and the exposure dose going progressively higher, for each subsequent cohort. A single dose of peptide EA-230 (AQGV (SEQ ID NO:120)) was administered subcutaneously, but with treatment delayed until three days (72 hours) after the WBI. The test is called the Dose Reduction Factor (“DRF”), which is defined as ratio between the LD50 of the treated group to the LD50 of the control group. The LD50 refers to that dose which is lethal to 50% of the animals tested. An acceptable DRF value is 1.20.
In this example we report on escalating dose studies of Whole Body Irradiation (WBI) with one single exposure given to any particular cohort, and the exposure dose going progressively higher for each subsequent cohort. A single dose of peptide AQGV (SEO ID NO:120) (10 mg/kg) was administered subcutaneously, but with treatment delayed until three days (72 hours) after the WBI. The test is called the Dose Reduction Factor (“DRF”), which is defined as ratio between the LD50 of the treated group to the LD50 of the control group. The LD50 refers to that dose which is lethal to 50% of the animals tested.
An acceptable DRF ratio is a factor of at least 1.10; but preferred is at least 1.20 or even at least 1.25.

Setting [5] is: 0 hours (LPS treatment), peptide from Ansynth (#Ansynth 12, #Ansynth 46) 5 mg/kg.
The mark [6] stands for this setting: 0 hours (LPS treatment), peptide from Diosynth BV (#970, #971) 5 mg/kg.
Where [7] appears, read: 2 hours (compound treatment), peptide from Ansynth (#Ansynth 12, #Ansynth 46) 5 mg/kg.
Setting [8] is: 2 hours (compound treatment), peptide from Diosynth BV (#970, #971) 5 mg/kg.
Setting [9] is: 22 hours, peptide from Ansynth (#Ansynth 12, #Ansynth 46) 5 mg/kg.
Setting [10] is: 22 hours, peptide from Diosynth BV (#970, #971) 5 mg/kg.
Setting [11] is: 26 hours, peptide from Ansynth (#Ansynth 12, #Ansynth 46) 5 mg/kg.
[12] abbreviates: 26 hours, peptide from Diosynth BV (#970, #971) 5 mg/kg.
[13] abbreviates: 42 hours, peptide from Ansynth (#Ansynth 12, #Ansynth 46) 5 mg/kg.
Setting [14] is: 42 hours, peptide from Diosynth BV (#970, #971) 5 mg/kg.
The mark [15] stands for this setting: 48 hours, peptide from Ansynth (#Ansynth 12, #Ansynth 46) 5 mg/kg.
The mark [16] stands for this setting: 48 hours, peptide from Diosynth BV (#970, #971) 5 mg/kg.
The mark [17] stands for this setting: peptide from Ansynth (#Ansynth 12, #Ansynth 46) 5 mg/kg.
Setting [18] is: peptide from Diosynth BV (#970, #971) 5 mg/kg.

With MTR, the “Sickness Score, individual mouse” value in experiment [1] (setting [5]) was 0; in experiment [1] (setting [6]), 0; in experiment [1] (setting [7]), 2; in experiment [1] (setting [8]), 2; in experiment [1] (setting [9]), 2 (4×) and 4 and 3; in experiment [1] (setting [10]), “dead and 3 and 2 (3×) and 4”. Moreover, the “Sickness Score, individual mouse” value in experiment [1] (setting [11]) is 1 and 2 (2×) and 5 and 4 and 3; in experiment [1] (setting [12]) it was 3 and 2 (3×) and 5; in experiment [1] (setting [13]) it was 1 and 2 (2×) and dead and 4 and 5; in experiment [1] (setting [14]), 5 and 2 (2×) and 4 and dead; in experiment [1] (setting [15]), 1 (2×) and dead (2×) and 2; in experiment [1] (setting [16]) it was “dead (2×) and 2 (2×)”. Also, the Survival % in experiment [1] (setting [17]) was found to be 50%; in experiment [1] (setting [18]) it was 33%.

For the substance VLPALP (hexamer peptide), the Watery eyes was 0/8 in experiment [2] (day 0 after irradiation), 0/8 in experiment [2] (day 4 after irradiation), 0/9 in experiment [3] (day 0 after irradiation) and 0/9 in experiment [3] (day 4 after irradiation). The Weight loss in experiment [2] (day 0 after irradiation) is given as 0/8; in experiment [2] (day 4 after irradiation), 8/8; in experiment [3] (day 0 after irradiation), 0/9; in experiment [3] (day 4 after irradiation), 9/9. Besides, the Mortality in experiment [2] (day 0 after irradiation) is reported as 0/8; in experiment [2] (day 3 after irradiation) it was 0/8; in experiment [2] (day 4 after irradiation), 0/8; in experiment [2] (day 5 after irradiation), 0/8; in experiment [2] (day 6 after irradiation), 7/8; in experiment [2] (day 7 after irradiation), 8/8. Besides, the Mortality in experiment [3] (day 0 after irradiation) was 0/9; in experiment [3] (day 3 after irradiation), 0/9; in experiment [3] (day 4 after irradiation) it was 0/9; in experiment [3] (day 5 after irradiation), 0/9; in experiment [3] (day 6 after irradiation), 3/9; in experiment [3] (day 7 after irradiation), 9/9.

LQGV: the Watery eyes in experiment [2] (day 0 after irradiation) was 0/8; in experiment [2] (day 4 after irradiation), 0/8; in experiment [3] (day 0 after irradiation) it was 0/9; in experiment [3] (day 4 after irradiation) it was 3/9. Also, the Weight loss in experiment [2] (day 0 after irradiation) is recorded as 0/8; in experiment [2] (day 4 after irradiation), 8/8; in experiment [3] (day 0 after irradiation), 0/9; in experiment [3] (day 4 after irradiation) it was 9/9. Besides, the Mortality was 0/8 in experiment [2] (day 0 after irradiation); 0/8 in experiment [2] (day 3 after irradiation); 0/8 in experiment [2] (day 4 after irradiation); 0/8 in experiment [2] (day 5 after irradiation); 7/8 in experiment [2] (day 6 after irradiation); 8/8 in experiment [2] (day 7 after irradiation). Also, the Mortality was 0/9 in experiment [3] (day 0 after irradiation); 0/9 in experiment [3] (day 3 after irradiation); 0/9 in experiment [3] (day 4 after irradiation); 1/9 in experiment [3] (day 5 after irradiation); 6/9 in experiment [3] (day 6 after irradiation); 9/9 in experiment [3] (day 7 after irradiation).

On to AQGV, for which the “Dose Reduction Factor (factor by which the radiation dose has to be increased to kill 50% of the animals)” value in experiment [4] (10 mg/kg s.c. single dose 72 hours after WBI, LD50 treated / LD50 control) was found to be 1.25. For the same substance, the “radiation dose that kills 50% of the treated animals (LD50)” value in experiment [4] (10 mg/kg s.c. single dose 72 hours after WBI, day 30) is roughly 10.4 Gy. Further, the “Percent alive at day 30” value came to 100% in experiment [4] (WBI 8.6 Gy); 100% in experiment [4] (WBI 9.2 Gy); 100% in experiment [4] (WBI 9.8 Gy); 40% in experiment [4] (WBI 10.4 Gy); 0% in experiment [4] (WBI 11.0 Gy). Also, the “Percent dead at day 30” value in experiment [4] (WBI 8.6 Gy) was found to be 0%; in experiment [4] (WBI 9.2 Gy) it was 0%; in experiment [4] (WBI 9.8 Gy) it was 0%; in experiment [4] (WBI 10.4 Gy), 60%; in experiment [4] (WBI 11.0 Gy), 100%. For the same substance, the “The absolute number of animals alive at 30 days post WBI” value is listed as 20 in experiment [4] (WBI 8.6 Gy); 10 in experiment [4] (WBI 9.2 Gy); 10 in experiment [4] (WBI 9.8 Gy); 4 in experiment [4] (WBI 10.4 Gy); 0 in experiment [4] (WBI 11.0 Gy). Further, the “Sickness Score, individual mouse” value in experiment [1] (setting [5]) is 0; in experiment [1] (setting [6]), 0; in experiment [1] (setting [7]), 2; in experiment [1] (setting [8]), 2; in experiment [1] (setting [9]), 3 (2×) and 2 (3×) and 4; in experiment [1] (setting [10]), 2 (4×) and 3 and 4. Besides, the “Sickness Score, individual mouse” value is 3 (2×) and 2 (3×) and 4 in experiment [1] (setting [11]); 2 (3×) and 3 (2×) and 5 in experiment [1] (setting [12]); 2 and 3 and 1 (3×) and 5 in experiment [1] (setting [13]); 2 (5×) and dead in experiment [1] (setting [14]); 1 (5×) and dead in experiment [1] (setting [15]); 2 (3×) and 1 (2×) in experiment [1] (setting [16]). Moreover, the Survival % in experiment [1] (setting [17]) and in experiment [1] (setting [18]) was 83% each time.
